Legend:
STAT3 = STAT3 reporter gene assay (luciferase), LNCaP stable cell line pSTAT3-TA-luc, IL-6 stimulation; format: cell-based, human; conditions: Homo sapiens
Summary of the method: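 LNCaP cells stably carrying pSTAT3-TA-luc were plated 24 h in 3% DCC-FBS medium, then given compound followed by IL-6 (10 ng/mL final) for 24 h at 37 °C. Luciferase was read from lysates, with CellTiter-Glo viability on a duplicate plate. Stimulated 0.1% DMSO wells served as uninhibited control.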

STAT1 = STAT1 reporter gene assay (luciferase), U2OS stable cell line pGL4-STAT1-TA-luc, IFN-γ stimulation; format: cell-based, human; conditions: Homo sapiens, IFN-γ 50 ng/mL, 8 hours, read-out: IC50 (μM) pSTAT1
Summary of the method: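 U2OS cells stably carrying a STAT1-driven luciferase reporter were treated with serially diluted compounds plus IFN-γ (50 ng/mL final) for 8 h at 37 °C in 10% FBS medium. Luciferase read after lysis; parallel plate assessed for cytotoxicity by CellTiter-Glo.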

[1] = test system: LNCaP prostate cancer cell line; test: Cell growth inhibition assay, LNCaP (CellTiter-Glo); format: cell-based; conditions: Homo sapiens; LNCaP, 10,000 cells/well, medium with 10 ng/mL IL-6, 96 hours
Description: (§1) The inhibitory effects of the compounds of the present invention against the growth of cancer cells were evaluated as shown below. The cancer cell lines including prostate cancer cell lines (LNCaP, DU-145), stomach cancer cell line (NCI-N87), and breast cancer cell lines (MDA-MB-468) were cultured under the protocol provided by each supplier. A medium supplemented with 10 ng/mL of IL-6 was used for LNCaP, a prostate cancer cell line, when treated with a drug. Each type of cells to be used in experiments was sub-cultured in a 96-well plate by counting the exact number of cells using Tali™ Image-based Cytometer (Life Technologies). In a 96-well plate, DU-145 was employed with 3,000 cells/well; NCI-N87 was employed with 5,000 cells/well; and LNCaP and MDA-MB-468 were employed with 10,000 cells/well. The cells were treated with the compounds listed in Examples which were diluted in various concentrations. Upon completion of the compounds treatment, LNCaP, DU-145, NCI-N87 cells were cultured at 37° C. under 5% CO2 for 96 hours, and MDA-MB-468 cells were cultured at 37° C. in air for 96 hours. Subsequently, the cells were observed under microscope and drug precipitation and particular findings were investigated and recorded. And then, the 96-well plate was placed at room temperature for 30 minutes, added with 20 pt/well of CellTiter-Glo solution (Cat No. G7573, Promega) and shaken for 10 minutes, followed by being subjected to the measurement using PHERAstar™ microplate reader (BMG LABTECH) according to the supplier's general luminometer protocol. Wells where only culture liquid added without cell plating were used as a negative control, whereas wells where culture liquid containing 0.1% DMSO instead of the compounds listed in Examples were used as a positive control.

[2] = test system: DU-145 prostate cancer cell line; test: Cell growth inhibition assay, DU-145 (CellTiter-Glo); format: cell-based; conditions: Homo sapiens; DU-145, 3,000 cells/well, 96 hours
Description: as §1

Compound | IC50 (STAT3) [µM] | IC50 (STAT1) [µM] | IC50 [1] [µM] | IC50 [2] [µM]
CC(C)(c1ccc2sc(C(=O)Nc3cc(Cl)cc(Oc4ccc(F)c(Cl)c4)c3)cc2c1)S(C)(=O)=O [Example 51, N-(3-chloro-5-(3-chloro-4-fluorophenoxy)phenyl)-5-(2-(methylsulfonyl)propan-2-yl)benzo[b]thiophene-2-carboxamide] | 0.022 | > 50 | 0.031 | 0.0082
CC(C)(c1ccc2sc(C(=O)Nc3cc(Cl)cc(Oc4cccc(OC(F)(F)F)c4)c3)cc2c1)S(C)(=O)=O [Example 48, N-(3-chloro-5-(3-(trifluoromethoxy)phenoxy)phenyl)-5-(2-(methylsulfonyl)propan-2-yl)benzo[b]thiophene-2-carboxamide] | 0.014 | > 50 | 0.01 | 0.008
CC(C)(c1ccc2sc(C(=O)Nc3cc(Cl)cc(Oc4ccc(C(F)(F)F)cc4)c3)cc2c1)S(C)(=O)=O [Example 38, N-(3-chloro-5-(4-(trifluoromethyl)phenoxy)phenyl)-5-(2-(methylsulfonyl)propan-2-yl)benzo[b]thiophene-2-carboxamide] | 0.018 | > 50 | 0.0083 | 0.0053
CC(C)(c1ccc(Cl)cc1)c1cc(Cl)cc(NC(=O)c2cc3cc(C(C)(C)S(C)(=O)=O)c(Cl)cc3s2)c1 [Example 23, 6-chloro-N-(3-chloro-5-(2-(4-chlorophenyl)propan-2-yl)phenyl)-5-(2-(methylsulfonyl)propan-2-yl)benzo[b]thiophene-2-carboxamide] | 0.084 | > 50 | 0.8 | 0.04
CS(=O)(=O)Cc1ccc2sc(C(=O)Nc3cc(Cl)cc(-c4ccc(F)cc4F)c3)cc2c1 [Example 95, N-(5-chloro-2′,4′-difluoro-[1,1′-biphenyl]-3-yl)-5-((methylsulfonyl)methyl)benzo[b]thiophene-2-carboxamide] | 0.028 | 35.7 | 0.023 | 0.013
CC(C)(c1cc(Cl)cc(NC(=O)c2cc3cc(C(C)(C)S(C)(=O)=O)ccc3s2)c1)c1ccc(Cl)s1 [Example 27, N-(3-chloro-5-(2-(5-chlorothiophen-2-yl)propan-2-yl)phenyl)-5-(2-(methylsulfonyl)propan-2-yl)benzo[b]thiophene-2-carboxamide] | 0.075 | > 50 | 0.029 | 0.024
CC(C)(c1ccc(Cl)cc1)c1cc(Cl)cc(NC(=O)c2cc3cc(C4(S(C)(=O)=O)CCOCC4)ccc3s2)c1 [Example 34, N-(3-chloro-5-(2-(4-chlorophenyl)propan-2-yl)phenyl)-5-(4-(methylsulfonyl)tetrahydro-2H-pyran-4-yl)benzo[b]thiophene-2-carboxamide] | 8.7 | > 50 | > 1.1 | > 1.1
CC(C)(c1ccc(Cl)cc1)c1cc(Cl)cc(NC(=O)c2cc3cc(C4(S(C)(=O)=O)CC4)ccc3s2)c1 [Example 33, N-(3-chloro-5-(2-(4-chlorophenyl)propan-2-yl)phenyl)-5-(1-(methylsulfonyl)cyclopropyl)benzo[b]thiophene-2-carboxamide] | 0.054 | > 50 | 0.03 | 0.023
CC(C)(c1cc2cc(C(=O)Nc3cc(Cl)cc(Oc4ccc(Cl)cc4)c3)sc2cc1Cl)S(C)(=O)=O [Example 45, 6-chloro-N-(3-chloro-5-(4-chlorophenoxy)phenyl)-5-(2-(methylsulfonyl)propan-2-yl)benzo[b]thiophene-2-carboxamide] | 0.078 | > 50 | 0.53 | 0.037
COc1cc(F)cc(Oc2cc(Cl)cc(NC(=O)c3cc4cc(C(C)(C)S(C)(=O)=O)ccc4s3)c2)c1 [Example 53, N-(3-chloro-5-(3-fluoro-5-methoxyphenoxy)phenyl)-5-(2-(methylsulfonyl)propan-2-yl)benzo[b]thiophene-2-carboxamide] | 0.033 | > 50 | 0.037 | 0.02
